# Laboratory results taken from patent publication US10980764B1, “Exogenous ketone supplements for reducing anxiety-related behavior” (priority 2016, dated 2021).
# How the values were obtained:
# WAG/Rij rats = assay: EPM after 7 days oral gavage, WAG/Rij rats, Study 1; format: in vivo, rat; conditions: 7 days gavage ~2.5 g/kg b.w./day, compared to control (SD)
# Description: To extend the results and ensure that the results were not strain dependent, exogenous ketone supplements were tested on both SPD rats and Wistar Albino Glaxo/Rijswijk (WAG/Rij) rats for 7 days by gavage (5 g/kg/day and 2.5 g/kg/day, respectively, SD+KE and SD+KS), as WAG/Rij rats show reduced activity of GABAergic system (Luhmann H J, et al. Impairment of intracortical GABAergic inhibition in a rat model of absence epilepsy. Epilepsy Res. 1995 September; 22(1):43-51).
# EPM (COULBOURN Instruments) was used to assess anxiety-related behavior of the rats after 83 days of chronic feeding or after 7 days of oral gavage. EPM experiments were carried out under non-stressful conditions (in a dimly lit and quiet room) between 12.00 and 14.00 hours.
# The rats were transferred in their home cage to the experimental room 30 min prior to beginning the experiment. Briefly, rats were placed in the intersection of the four arms of the EPM, facing the open arm opposite to where the experimenter was and their behavior was recorded for 5 minutes. The amount of time spent and number of entries made on the open arms, closed arms and the center zones were recorded. Latency to entry into the closed arms and the distance travelled in each zones was also measured in chronically treated SPD rats. Notes were made on other ethological measures such as number of rears, head dips, fecal boli, and freezing, or stretched-attend postures.
# At the end of the 5-minute test the rats were removed from the maze and placed back into their home cage. The maze was cleaned with 70% alcohol and after it with tap water and dried with paper towel between rats. The primary method for data collection was a video-tracking system with computer interface and video camera (SMART V3.0 PLATFORM, PANLAB, Harvard Apparatus, USA), to automatically collect behavioral data in SPD rats. A blinded observer was present in the testing room separated from the maze by a curtain, and manually collected EPM data in both SPD and WAG/Rij animals at the end of treatments.
# Results were considered significant when p<0.05. Significance was determined by unpaired t-test.
# [1] = Blood βHB and glucose levels (PRECISION XTRA), SPD rats, Study 1; conditions: for Glucose, Mean Diff., Tukey's multiple comparisons test (Compare S-D to WagRij) / βHB, Mean Diff., Tukey's multiple comparisons test (Compare S-D to WagRij): S-D (SPD) rats, own Baseline minus 7 days of the same group; for Blood glucose levels: at 24 hours; for Blood βHB (90 days), Mean Diff., Tukey's multiple comparisons test: chronic feeding, After:SD (control) minus After:treated group
# Description: In order to familiarize the animals to the intragastric gavage method, tap water was gavaged for 5 days before ketone supplementation. A total of 48 male SPD rats were fed for 83 days with either standard rodent chow (SD)+water application (˜25 g/kg b.w. water/day) (SD/control group; n=9) or SD+ketone supplementation by gavage.
# In the chronic feeding study, blood βHB and glucose levels were measured 24 hours before the 1st day of ketone treatments (baseline levels) and after the 13th week of ketone treatment. In the 7-day oral gavage studies, blood βHB and glucose levels were measured 24 hours before the 1st day of ketone treatments (baseline levels; SPD and WAG/Rij rats) and after the 1st day (SPD rats) and the 7th day (SPD and WAG/Rij rats) of ketone gavaging. In acute study, blood βHB and glucose levels were measured 40 min after ketone treatment. Whole blood samples (10 μL) were taken from the saphenous vein for analysis of blood glucose (mg/dl) and βHB (mmol/1) levels with the commercially available glucose and ketone monitoring system PRECISION XTRA™ (ABBOTT Laboratories, Abbott Park, Ill., USA). The PRECISION XTRA™ ketone monitoring system only measures βHB blood levels; therefore, total blood ketone levels would be higher than measured.
# (§1) All data are presented as the mean±standard error of the mean (SEM). The effects of ketone supplementations on anxiety level were compared, as well as on blood βHB and glucose levels to control or/and baseline levels. Data analysis was performed using GraphPad PRISM version 6.0a. Results were considered significant when p<0.05. Significance was determined by unpaired t-test. Blood ketone, blood glucose, and body weight change were compared using a two-way ANOVA with Tukey's multiple comparisons test and unpaired t-test.
# [2] = Body weight, SPD rats, Study 1; format: in vivo, rat; conditions: for Body Weight (7 days), Mean Diff., Tukey's multiple comparisons test: in g (unit assumed)
# Description: The body weight of all animals was recorded before ketone treatments started (before) and after the last ketone treatments (after).
# Results were considered significant when p<0.05. […]
# [3] = Blood βHB and glucose levels (Precision Xtra), WAG/Rij rats, Study 3
# Description: For the sub-chronic gavage administration, the gavage dose was used that induced desired elevation of blood ketone based on the current inventors' previous studies (Kesl et al. 2016).
# In the chronic feeding study, blood βHB and glucose levels were measured 24 hours before the 1st day of ketone treatments (baseline levels) and at the 13th week after the EPM experiment. In the 7-day oral gavage studies, blood βHB and glucose levels were measured 24 hours before the 1st day of ketone treatments (baseline levels; SPD and WAG/Rij rats), 24 hours after the first gavage, and 60 min after gavage on the 7th day (SPD and WAG/Rij rats). Whole blood samples (10 μL) were taken from the saphenous vein for analysis of blood glucose (mg/dl) and βHB (mmol/1) levels with the commercially available glucose and ketone (βHB) monitoring system Precision Xtra™ (Abbott Laboratories, Abbott Park, Ill., USA).
# as §1, with “anxiety-related behavior” for “anxiety level”, “one-way ANOVA with Fisher s LSD test for the behavioral data.” for “unpaired t-test.”, “test.” for “test and unpaired t-test.”
# [4] = SPD rats, 7 days of gavaging, compared to baseline
# [5] = SPD rats, after 83 days of chronic feeding, compared to control
# [6] = SPD rats, 24h:SD (control) minus 24h:treated group
# [7] = After:SD (control) minus After:treated group
molecule,measurement,setting,value
"CC(=O)CC(=O)OCCC(C)OC(=O)CC(C)=O (centres unmarked) [KE, 1,3-butanediol-acetoacetate diester]",Time spent in the center,WAG/Rij rats,more time
same,"Glucose, Mean Diff., Tukey's multiple comparisons test (Compare S-D to WagRij)",[1],-1.841 mg/dL
same,"βHB, Mean Diff., Tukey's multiple comparisons test (Compare S-D to WagRij)",[1],−0.1389 mmol/1
same,Blood βHB levels,"[1]; SPD rats, 24 hours after a single gavage, compared to baseline",elevated
same,Blood βHB,[1]; [4],did not change
same,Blood βHB,[1]; [5],elevated
same,Blood glucose levels,"[1]; SPD rats, compared to baseline",lower
same,Blood glucose levels,"[1]; SPD rats, compared to control group",lower
same,"Blood βHB (90 days), Mean Diff., Tukey's multiple comparisons test",[1]; SPD rats,−0.2978 mmol/1
same,Blood glucose,"[1]; SPD rats, from baseline to 7 days",did not change
same,"Blood Glucose (7 days), Mean Diff., Tukey's multiple comparisons test",[1]; [6],33.11 mg/dL
same,"Blood βHB (7 days), Mean Diff., Tukey's multiple comparisons test",[1]; [6],−0.5235 mmol/1
same,"Blood Glucose (7 days), Mean Diff., Tukey's multiple comparisons test","[1]; SPD rats, 24h minus 7days of the same group",-23.02 mg/dL
same,"Blood Glucose (7 days), Mean Diff., Tukey's multiple comparisons test","[1]; SPD rats, own Baseline minus 24h of the same group",21.18 mg/dL
same,"Body Weight (7 days), Mean Diff., Tukey's multiple comparisons test",[2]; [7],37.03
same,Body weight,"[2]; after chronic feeding (week 13), compared to control, listed as SD+LKE",higher
same,"Body Weight (90 days), Mean Diff., Tukey's multiple comparisons test","[2]; chronic feeding, After:SD (control) minus After:treated group",73.96
same,Glucose levels,"[3]; WAG/Rij rats, after 24h, compared to baseline levels",lower
same,Glucose levels,"[3]; WAG/Rij rats, after 7 days compared to the level at 24h",elevated
same,Blood βHB,"[3]; WAG/Rij rats, after 7 days of gavage, compared to baseline, 24 hours and control",elevated
Na^+/K^+-βHB mineral salt [KS],Entries to the closed arms,WAG/Rij rats,less frequent
same,Time spent in the closed arms,WAG/Rij rats,less time
same,Time spent in the open arms,WAG/Rij rats,more time
same,"Glucose, Mean Diff., Tukey's multiple comparisons test (Compare S-D to WagRij)",[1],-0.3258 mg/dL
same,"βHB, Mean Diff., Tukey's multiple comparisons test (Compare S-D to WagRij)",[1],−0.4455 mmol/1
same,Blood βHB,[1]; [4],significant difference
same,Blood βHB,[1]; [5],elevated
same,Blood glucose levels,"[1]; SPD rats, compared to baseline",lower
same,"Blood βHB (90 days), Mean Diff., Tukey's multiple comparisons test",[1]; SPD rats,−0.3653 mmol/1
same,"Blood βHB (7 days), Mean Diff., Tukey's multiple comparisons test","[1]; SPD rats, 7days:SD (control) minus 7days:treated group",−0.547 mmol/1
same,"Body Weight (7 days), Mean Diff., Tukey's multiple comparisons test",[2]; [7],48.25
same,Blood βHB,"[3]; rat, in vivo",elevated
